Results reported in US9228998B2, “Drug monitoring methods using the promyelocytic leukemia protein as a redox sensor” (Institut National de la Sante et de la Recherche Medicale …, priority 2010, dated 2016).

Columns and labels:
PML = target: T1, PML (Homo sapiens, UniProt P29590); assay: Western-blot analysis under non-reducing conditions of PML-transfected CHO cells (disulfide-linked PML complexes); format: cell-based; design: amounts of covalent PML multimers: concentration or dose not given beside the values; conditions: for amounts of covalent PML multimers: short exposure, CHO cells transiently overexpressing PML; for covalent PML homodimers: transiently PML- or PML3KR-transfected cells, non-reducing conditions; for formation of covalent multimers: pretreatment, transiently PML-transfected CHO cells
T1 construct: expressed in transfected cells; host or cells: CHO (transient)
T1 sequence (P29590 1-641 isoform P29590-9): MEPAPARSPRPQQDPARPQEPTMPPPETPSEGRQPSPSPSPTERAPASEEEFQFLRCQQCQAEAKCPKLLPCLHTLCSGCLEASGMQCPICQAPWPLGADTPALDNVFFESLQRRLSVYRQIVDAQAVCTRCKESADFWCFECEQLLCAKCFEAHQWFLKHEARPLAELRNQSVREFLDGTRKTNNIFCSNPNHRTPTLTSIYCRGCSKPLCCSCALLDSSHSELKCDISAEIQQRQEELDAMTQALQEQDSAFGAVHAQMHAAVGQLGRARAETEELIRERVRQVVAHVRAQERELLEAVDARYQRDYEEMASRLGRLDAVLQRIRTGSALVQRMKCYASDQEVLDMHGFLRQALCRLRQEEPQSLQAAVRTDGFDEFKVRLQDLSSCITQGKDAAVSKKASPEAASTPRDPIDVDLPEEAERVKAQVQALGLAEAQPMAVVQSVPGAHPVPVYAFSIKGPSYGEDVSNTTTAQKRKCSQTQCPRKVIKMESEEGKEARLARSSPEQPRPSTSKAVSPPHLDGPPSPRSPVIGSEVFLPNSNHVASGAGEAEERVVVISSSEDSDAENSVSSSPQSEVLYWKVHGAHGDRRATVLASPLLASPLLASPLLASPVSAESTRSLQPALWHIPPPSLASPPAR
Procedure: (§1) HeLa, MRC5, CHO, COS, SaOS and Pml−/− MEF cells were cultured in 10% Fetal calf serum DMEM medium (Gibco). Plasmid transfections were performed in CHO or COS with Effectene transfection reagent (Qiagen). Stable CHO cell lines, expressing the PML isoform, or its mutants, were obtained by cotransfection of pSG5-PMLΔSIM, pSG5-3K/RΔSIM, pSG5-C212A or pSG5-B1 with the Dsp-Hygro vector; selected for 2 weeks in […] hygromycin-containing media. Clones were selected for similar PML expression levels. PML WT, PML C60A, PMLΔCC and PML 3K/R stable expressing cell lines were described previously^25. MRC5 or SaOS were grown on coverslides and treated with 400 U/ml IFNg for 48 h and IFNa for 24 h to induce PML expression. Primary mouse APL blasts were obtained from serially transplanted APLs^16 and then cultured in RPMI medium, 10% FCS supplemented with IL-3, IL-6 and SCF (Gibco). Infection of immortalized pml−/− MEFs or primary progenitors was performed with retroviruses produced by CaCl2 transfection of Plat-E cells by with the MSCV-PML/RARA retroviral vector^16. Pml−/− or +/+ MEF cells were similarly transduced with MSCV-PML or PML mutants.
(§2) As2O3 (Fluka) treatments were performed at 1 mM or 10 mM for 1 h. H2O2 from SIGMA-Aldrich was performed for 30 min at 0.1, 1 or 10 mM as indicated, Phenylarsine oxide (PAO) was purchased from SIGMA, solubilized at 50 mg/ml in DMSO and used at 0.1 mM, 1 mM or 10 mM for 1 h, CdCl2 from Flucka, was used at a final concentration of 10 mM. Cells were treated with 10 mM Lactacystin (Calbiochem) overnight, and with 50 mg/ml ready-made cycloheximide (SIGMA) as indicated. Pre-treatments with 100 mM N-ethyl maleimide (NEM) (SIGMA) for 30 min were carried out before adding As2O3 or H2O2. TC-FlAsH (FlAs) was from Molecular Probes; cells growing on coverslides were treated with 1 mM for 1 h, washed in PBS before PFA fixation. Dithiarsolan-biotin conjugate (arsenic-biotin) was kindly given by Kenneth L. Kirk^53, solubilized in DMSO to a 5 mM stock solution, and used on cell culture at 10 mM for 1 h.
Cell lysates were resolved on 7%, 3 to 10% gradient or 12% SDS-PAGE gels and transferred onto nitrocellulose membranes. Detection was performed with the chemi-luminescent substrate SuperSignal WestPico (Pearce), using previously described home made mouse and chicken anti-hPML antibodies^15,25, the PML isoform-specific antibodies were characterized previously^29. For analysis under non-reducing conditions, b-Mercapto-Ethanol or DTT was omitted from the standard Laemmli buffer. In situ nuclear matrix was prepared as for immunofluorescence, but finally resuspended in Laemmli buffer. Purifications of 6M Guanidium-HCl denatured (His×6)-tagged proteins were done with Ni-NTA-agarose from Qiagen, as previously^25. The purification of the arsenic-bound proteins were performed from As-biotin treated CHO-PML or transiently pSG5-PML wt or C212A transfected COS cells. Cells were lysed in 2% SDS-containing RIPA with Protease Inhibitor Cocktail (PIC) (Roche Applied Science), denatured at 95° C. for 5 min to release nuclear matrix-associated PML. Streptavidin-agarose (Molecular Probes) was added to the […] lysates for 30 min to 1 h, washed three times in RIPA and arsenic bound proteins were eluted in Laemmli buffer.
Intermolecular disulfide bonds were previously implicated in stabilization of the nuclear matrix. […] We then compared total and nuclear matrix extracts from transiently transfected CHO cells under non-reducing conditions and observed that the matrix fraction was dramatically enriched in covalent PML dimers.

PML NBs [1] = target: T2, PML NBs (Homo sapiens, UniProt P29590); assay: NB formation in CHO-PML xenografts in nude mice; format: in vivo; conditions: treatment of nude mice bearing CHO-PML xenografts
T2 construct: expressed in transfected cells
T2 sequence (P29590 1-641 isoform P29590-9): T1 sequence (P29590 1-641 isoform P29590-9)
Procedure: (§3) Mouse experiments were repeated 3 times. Animal handling was done according to the guidelines of institutional animal care committees, using protocols approved by “Comité Régional d'Ethique Expérimentation Animale (CREEA) no 4”. 25 mg/kg Paraquat (SIGMA) was daily intraperitoneally injected in PML/RARA and PML/RARA-S77A leukemic mice^17 (to be fully described elsewhere). In vivo imaging was performed using a Xenogen IVIS100 facility to ensure similar tumor mass pre-treatment. Mice were treated with 150 mg/kg for 1 h before bone marrow cytospins (from FVB/NICO) and […] tumor cryosections (NUDE/SWISS) immuno-histochemistry; CHO-PML xenografts were performed as before^42.
(§4) Disulfide bonds are oxidant-sensitive. […] As ROS status is profoundly altered in cell culture, we examined NBs in vivo in basal conditions and after acute induction of ROS. […] Thus, oxidation-triggered disulfide bonds in PML regulate its partitioning between the nucleoplasm and nuclear matrix associated NBs.
(§5) We next investigated whether oxidants enhance disulfide-bound PML multimerization. […] We thus examined whether paraquat, an acute ROS inducer, would regulate NB formation in vivo, a setting where ROS levels are likely more controlled.

endogenous murine PML = target: T3, endogenous murine PML (Mus musculus, UniProt Q60953); assay: NB formation by endogenous murine PML in bone marrow cells of treated mice; format: in vivo; conditions: normal bone marrow cells of treated mice
T3 construct: from tissue; host or cells: mouse bone marrow cells (cytospins, FVB/NICO mice)
T3 sequence (Q60953 1-885): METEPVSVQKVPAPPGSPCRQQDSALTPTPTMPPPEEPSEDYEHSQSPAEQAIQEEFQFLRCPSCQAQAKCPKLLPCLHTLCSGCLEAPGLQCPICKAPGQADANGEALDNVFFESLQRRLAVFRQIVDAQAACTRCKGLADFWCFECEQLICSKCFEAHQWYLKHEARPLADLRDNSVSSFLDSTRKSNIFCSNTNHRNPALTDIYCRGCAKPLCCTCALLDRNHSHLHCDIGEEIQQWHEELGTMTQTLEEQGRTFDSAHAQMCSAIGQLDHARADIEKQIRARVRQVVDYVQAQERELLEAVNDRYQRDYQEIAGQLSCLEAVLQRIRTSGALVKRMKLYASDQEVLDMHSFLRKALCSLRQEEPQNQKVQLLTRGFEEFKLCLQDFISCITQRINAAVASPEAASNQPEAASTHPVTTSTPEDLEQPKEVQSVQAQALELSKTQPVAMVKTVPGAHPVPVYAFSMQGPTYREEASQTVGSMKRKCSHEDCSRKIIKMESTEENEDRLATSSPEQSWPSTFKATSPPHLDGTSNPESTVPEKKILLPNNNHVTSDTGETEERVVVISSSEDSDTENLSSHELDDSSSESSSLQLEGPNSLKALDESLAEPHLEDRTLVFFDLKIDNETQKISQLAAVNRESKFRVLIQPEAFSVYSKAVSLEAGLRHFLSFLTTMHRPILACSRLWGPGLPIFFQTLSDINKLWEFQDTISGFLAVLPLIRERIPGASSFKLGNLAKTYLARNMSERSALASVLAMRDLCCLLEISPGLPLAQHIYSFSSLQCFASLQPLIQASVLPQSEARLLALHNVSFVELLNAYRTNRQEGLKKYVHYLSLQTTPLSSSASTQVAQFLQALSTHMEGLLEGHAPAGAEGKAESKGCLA
Procedure: as §3, §4, §5

PML NBs [2] = target: T2, PML NBs; assay: PML NBs in cultured cells (CHO-PML), immunofluorescence; format: cell-based
Procedure: as §1, §2
Immunofluorescence, electronic microscopy and antibodies were previously described^15. In situ nuclear matrix preparations were prepared as described^1. Confocal analyses were performed on a LSM510 Meta laser microscope (Carl Zeiss MicroImaging, Inc.) with a plan apochromat 63X N.A.1.4 oil immersion objective and increased resolution images were obtained with deconvolution software (Autodeblur, Image Quant) using blind iterative algorithms.

O=[As]O[As]=O (centres unmarked) [As2O3]
amounts of covalent PML multimers (PML): massively increased | covalent PML homodimers (PML): dramatic increase | NB formation in CHO-PML xenografts (PML NBs [1]): dramatic increase in NB formation | NB formation by endogenous murine PML (endogenous murine PML): Enhanced NB formation

[Cl][Cd][Cl] [CdCl2]
amounts of covalent PML multimers (PML): massively increased | NBs in cultured cells with strong oxidants (PML NBs [2]): disrupt NBs

OO [H2O2]
amounts of covalent PML multimers (PML): massively increased | covalent PML homodimers (PML): dramatic increase | NBs in cultured cells with strong oxidants (PML NBs [2]): disrupt NBs

CC(=O)N[C@@H](CS)C(=O)O [NAC, N-acetyl cysteine]
abundance of the high molecular weight PML forms (PML; pretreatment of CHO cells prior to PML transfection): dramatic decrease | formation of covalent multimers (PML): abrogated | basal NB formation (PML NBs [2]; CHO-PML cells cultured for 10 days with the ROS scavenger): lost basal NB formation | NBs after wash-out (PML NBs [2]; CHO-PML cells, 3 day wash-out after 10 days culture): NBs were restored

CCN1C(=O)C=CC1=O [NEM, N-ethyl maleimide]
formation of covalent multimers (PML): abrogated | As2O3 or H2O2-enhanced homodimer formation (PML; thiol alkylator added with As2O3 or H2O2): abrogated | basal PML NBs (PML NBs [2]; untreated cells / CHO-PML cells, 1 hr treatment): disrupted basal PML NBs

C[n+]1ccc(-c2cc[n+](C)cc2)cc1 [Paraquat]
NB formation in CHO-PML xenografts (PML NBs [1]): dramatic increase in NBs | NB formation in CHO-PML xenografts (PML NBs [1]; listed as paraquat): dramatic increase in NB formation | NB formation by endogenous murine PML (endogenous murine PML): Identical results | NB formation by endogenous murine PML (endogenous murine PML; listed as paraquat): Enhanced NB formation
